# Experimental data reported in PMC9377102, “Toxicity and toxicokinetics of the ethanol extract of Zuojin formula” (BMC Complementary Medicine and Therapies, 2022).
# Read-outs that look alike come from different tables or passages of the source.
# Tests used:
# [1] = tested on: CYP3A4, CYP1A2 and CYP2D6; conditions: cited from earlier work
# [2] = Toxicokinetics test in the satellite groups (UPLC-MS/MS of rat plasma); assay type: in vivo; conditions: for AUC(0-t) / Cmax / Tmax / half-life: SD, rat, plasma, po; for half-life: read-out: T1/2 mean (converted)
# Description: SD rats (5 ~ 6 weeks, 3/group/sex) were randomly allocated to three treatment groups and given the same dosage as those in the repeated toxicity experiment for 28 days. […] Carbamazepine was chosen as the internal standard (IS). The blood samples were centrifuged to obtain plasma. Then, 300 μL of acetonitrile containing 40 ng of IS was added to 100 μL of plasma. After vortexing for 1 min, the mixture was centrifuged at 17,000 rpm for 15 min at 4 °C. The supernatant of each sample was injected into a UPLC–MS/MS system for determination. The injection volume was 1 μL. UPLC–MS analysis was performed on a Thermo Fisher Scientific Ultimate 3000 UPLC system (San Jose, USA) and an API 4000 QTRAP mass spectrometer (Foster City, USA) equipped with an ESI source. The mobile phase consisted of 2 solvents: (A) water containing 0.1% formic acid and (B) 100% acetonitrile. For MS, multiple reaction monitoring (MRM) in positive ion mode was used as the scanning mode for the main components and IS in the plasma samples. The dwell time (DT), collision energy (CE), quadrupole 1 pre-rod bias (Q1) and quadrupole 3 pre-rod bias (Q3) are listed in Table 3.
# [3] = female, female rats, Day 1, highest dose (berberine 72.08, epiberberine 7.42, coptisine 7.42, palmatine 18.26, jatrorrhizine 2.80, columbamine 5.93 mg/kg)
# [4] = female, female rats, Day 1, middle dose (berberine 24.03, epiberberine 2.47, coptisine 2.47, palmatine 6.09, jatrorrhizine 0.93, columbamine 1.98 mg/kg)
# [5] = female, female rats, Day 28, highest dose (berberine 72.08, epiberberine 7.42, coptisine 7.42, palmatine 18.26, jatrorrhizine 2.80, columbamine 5.93 mg/kg)
# [6] = female, female rats, Day 28, lowest dose (berberine 8.01, epiberberine 0.82, coptisine 1.38, palmatine 2.03, jatrorrhizine 0.31, columbamine 0.66 mg/kg)
# [7] = female, female rats, Day 28, middle dose (berberine 24.03, epiberberine 2.47, coptisine 2.47, palmatine 6.09, jatrorrhizine 0.93, columbamine 1.98 mg/kg)
# [8] = male, male rats, Day 1, lowest dose (berberine 8.01, epiberberine 0.82, coptisine 1.38, palmatine 2.03, jatrorrhizine 0.31, columbamine 0.66 mg/kg)
# [9] = male, male rats, Day 1, middle dose (berberine 24.03, epiberberine 2.47, coptisine 2.47, palmatine 6.09, jatrorrhizine 0.93, columbamine 1.98 mg/kg)
# [10] = male, male rats, Day 28, highest dose (berberine 72.08, epiberberine 7.42, coptisine 7.42, palmatine 18.26, jatrorrhizine 2.80, columbamine 5.93 mg/kg)
# [11] = male, male rats, Day 28, lowest dose (berberine 8.01, epiberberine 0.82, coptisine 1.38, palmatine 2.03, jatrorrhizine 0.31, columbamine 0.66 mg/kg)
# [12] = male, male rats, Day 28, middle dose (berberine 24.03, epiberberine 2.47, coptisine 2.47, palmatine 6.09, jatrorrhizine 0.93, columbamine 1.98 mg/kg)
smiles,measurement,setting,value
COc1cc2c(cc1O)CC[n+]1cc3c(OC)c(OC)ccc3cc1-2 [jatrorrhizine],"Metabolism by CYP3A4, CYP1A2 and CYP2D6",[1],metabolized
same,AUC(0-t),"[2]; female, 0.4 g/kg, female rats, Day 1, low dose TAZF 0.4 g/kg by gavage, read-out: AUC0-t",25.6 ± 30 ng·h/mL
same,Cmax,"[2]; female, 0.4 g/kg, female rats, Day 1, low dose TAZF 0.4 g/kg by gavage, read-out: Cmax",11 ± 7.79 ng/mL
same,AUC(0-t),"[2]; female, 0.4 g/kg, female rats, Day 28, low dose TAZF 0.4 g/kg by gavage, read-out: AUC0-t",23.9 ± 27.7 ng·h/mL
same,Cmax,"[2]; female, 0.4 g/kg, female rats, Day 28, low dose TAZF 0.4 g/kg by gavage, read-out: Cmax",11.2 ± 15 ng/mL
same,AUC(0-t),"[2]; female, 3.7 g/kg, female rats, Day 1, high dose TAZF 3.7 g/kg by gavage, read-out: AUC0-t",22.1 ± 4.83 ng·h/mL
same,Cmax,"[2]; female, 3.7 g/kg, female rats, Day 1, high dose TAZF 3.7 g/kg by gavage, read-out: Cmax",14.8 ± 10.7 ng/mL
same,AUC(0-t),"[2]; female, 3.7 g/kg, female rats, Day 28, high dose TAZF 3.7 g/kg by gavage, read-out: AUC0-t",11.4 ± 1.79 ng·h/mL
same,Cmax,"[2]; female, 3.7 g/kg, female rats, Day 28, high dose TAZF 3.7 g/kg by gavage, read-out: Cmax",2.08 ± 0.41 ng/mL
same,Tmax,[2]; [3],0.5 h
same,AUC(0-t),"[2]; female, female rats, Day 1, highest dose (berberine 72.08, epiberberine 7.42, coptisine 7.42, palmatine 18.26, jatrorrhizine 2.80, columbamine 5.93 mg/kg), read-out: AUC0-t mean",22.1 ng·h/mL
same,Cmax,"[2]; female, female rats, Day 1, highest dose (berberine 72.08, epiberberine 7.42, coptisine 7.42, palmatine 18.26, jatrorrhizine 2.80, columbamine 5.93 mg/kg), read-out: Cmax mean",14.8 ng/mL
same,half-life,[2]; [3],238 min
same,AUC(0-t),"[2]; female, female rats, Day 1, lowest dose (berberine 8.01, epiberberine 0.82, coptisine 1.38, palmatine 2.03, jatrorrhizine 0.31, columbamine 0.66 mg/kg), read-out: AUC0-t mean",25.6 ng·h/mL
same,Cmax,"[2]; female, female rats, Day 1, lowest dose (berberine 8.01, epiberberine 0.82, coptisine 1.38, palmatine 2.03, jatrorrhizine 0.31, columbamine 0.66 mg/kg), read-out: Cmax mean",11 ng/mL
same,half-life,"[2]; female, female rats, Day 1, lowest dose (berberine 8.01, epiberberine 0.82, coptisine 1.38, palmatine 2.03, jatrorrhizine 0.31, columbamine 0.66 mg/kg)",158 min
same,Tmax,[2]; [4],0.83 h
same,AUC(0-t),"[2]; female, female rats, Day 1, middle dose (berberine 24.03, epiberberine 2.47, coptisine 2.47, palmatine 6.09, jatrorrhizine 0.93, columbamine 1.98 mg/kg), read-out: AUC0-t mean",19.9 ng·h/mL
same,Cmax,"[2]; female, female rats, Day 1, middle dose (berberine 24.03, epiberberine 2.47, coptisine 2.47, palmatine 6.09, jatrorrhizine 0.93, columbamine 1.98 mg/kg), read-out: Cmax mean",14.6 ng/mL
same,half-life,[2]; [4],214 min
same,Tmax,[2]; [5],1.33 h
same,AUC(0-t),"[2]; female, female rats, Day 28, highest dose (berberine 72.08, epiberberine 7.42, coptisine 7.42, palmatine 18.26, jatrorrhizine 2.80, columbamine 5.93 mg/kg), read-out: AUC0-t mean",11.4 ng·h/mL
same,Cmax,"[2]; female, female rats, Day 28, highest dose (berberine 72.08, epiberberine 7.42, coptisine 7.42, palmatine 18.26, jatrorrhizine 2.80, columbamine 5.93 mg/kg), read-out: Cmax mean",2.08 ng/mL
same,half-life,[2]; [5],299 min
same,Tmax,[2]; [6],4.17 h
same,AUC(0-t),"[2]; female, female rats, Day 28, lowest dose (berberine 8.01, epiberberine 0.82, coptisine 1.38, palmatine 2.03, jatrorrhizine 0.31, columbamine 0.66 mg/kg), read-out: AUC0-t mean",23.9 ng·h/mL
same,Cmax,"[2]; female, female rats, Day 28, lowest dose (berberine 8.01, epiberberine 0.82, coptisine 1.38, palmatine 2.03, jatrorrhizine 0.31, columbamine 0.66 mg/kg), read-out: Cmax mean",11.2 ng/mL
same,half-life,[2]; [6],203 min
same,Tmax,[2]; [7],1 h
same,AUC(0-t),"[2]; female, female rats, Day 28, middle dose (berberine 24.03, epiberberine 2.47, coptisine 2.47, palmatine 6.09, jatrorrhizine 0.93, columbamine 1.98 mg/kg), read-out: AUC0-t mean",3.87 ng·h/mL
same,Cmax,"[2]; female, female rats, Day 28, middle dose (berberine 24.03, epiberberine 2.47, coptisine 2.47, palmatine 6.09, jatrorrhizine 0.93, columbamine 1.98 mg/kg), read-out: Cmax mean",1.29 ng/mL
same,half-life,[2]; [7],320 min
same,T1/2 mean,"[2]; male rats, Day 1, highest dose (berberine 72.08, epiberberine 7.42, coptisine 7.42, palmatine 18.26, jatrorrhizine 2.80, columbamine 5.93 mg/kg)",9.68 h
same,AUC(0-t),"[2]; male, 0.4 g/kg, male rats, Day 1, low dose TAZF 0.4 g/kg by gavage, read-out: AUC0-t",52 ± 20.4 ng·h/mL
same,Cmax,"[2]; male, 0.4 g/kg, male rats, Day 1, low dose TAZF 0.4 g/kg by gavage, read-out: Cmax",11.8 ± 10.8 ng/mL
same,AUC(0-t),"[2]; male, 0.4 g/kg, male rats, Day 28, low dose TAZF 0.4 g/kg by gavage, read-out: AUC0-t",8.62 ± 3.21 ng·h/mL
same,Cmax,"[2]; male, 0.4 g/kg, male rats, Day 28, low dose TAZF 0.4 g/kg by gavage, read-out: Cmax",16.4 ± 16 ng/mL
same,AUC(0-t),"[2]; male, 3.7 g/kg, male rats, Day 1, high dose TAZF 3.7 g/kg by gavage, read-out: AUC0-t",101 ± 35.3 ng·h/mL
same,Cmax,"[2]; male, 3.7 g/kg, male rats, Day 1, high dose TAZF 3.7 g/kg by gavage, read-out: Cmax",17.7 ± 11 ng/mL
same,AUC(0-t),"[2]; male, 3.7 g/kg, male rats, Day 28, high dose TAZF 3.7 g/kg by gavage, read-out: AUC0-t",25.6 ± 6.74 ng·h/mL
same,Cmax,"[2]; male, 3.7 g/kg, male rats, Day 28, high dose TAZF 3.7 g/kg by gavage, read-out: Cmax",7.97 ± 7.64 ng/mL
same,Tmax,"[2]; male, male rats, Day 1, highest dose (berberine 72.08, epiberberine 7.42, coptisine 7.42, palmatine 18.26, jatrorrhizine 2.80, columbamine 5.93 mg/kg)",4 h
same,AUC(0-t),"[2]; male, male rats, Day 1, highest dose (berberine 72.08, epiberberine 7.42, coptisine 7.42, palmatine 18.26, jatrorrhizine 2.80, columbamine 5.93 mg/kg), read-out: AUC0-t mean",101 ng·h/mL
same,Cmax,"[2]; male, male rats, Day 1, highest dose (berberine 72.08, epiberberine 7.42, coptisine 7.42, palmatine 18.26, jatrorrhizine 2.80, columbamine 5.93 mg/kg), read-out: Cmax mean",17.7 ng/mL
same,Tmax,[2]; [8],10 h
same,AUC(0-t),"[2]; male, male rats, Day 1, lowest dose (berberine 8.01, epiberberine 0.82, coptisine 1.38, palmatine 2.03, jatrorrhizine 0.31, columbamine 0.66 mg/kg), read-out: AUC0-t mean",52 ng·h/mL
same,Cmax,"[2]; male, male rats, Day 1, lowest dose (berberine 8.01, epiberberine 0.82, coptisine 1.38, palmatine 2.03, jatrorrhizine 0.31, columbamine 0.66 mg/kg), read-out: Cmax mean",11.8 ng/mL
same,half-life,[2]; [8],3170 min
same,Tmax,[2]; [9],1.83 h
same,AUC(0-t),"[2]; male, male rats, Day 1, middle dose (berberine 24.03, epiberberine 2.47, coptisine 2.47, palmatine 6.09, jatrorrhizine 0.93, columbamine 1.98 mg/kg), read-out: AUC0-t mean",74.5 ng·h/mL
same,Cmax,"[2]; male, male rats, Day 1, middle dose (berberine 24.03, epiberberine 2.47, coptisine 2.47, palmatine 6.09, jatrorrhizine 0.93, columbamine 1.98 mg/kg), read-out: Cmax mean",15.4 ng/mL
same,half-life,[2]; [9],4080 min
same,Tmax,[2]; [10],1.17 h
same,AUC(0-t),"[2]; male, male rats, Day 28, highest dose (berberine 72.08, epiberberine 7.42, coptisine 7.42, palmatine 18.26, jatrorrhizine 2.80, columbamine 5.93 mg/kg), read-out: AUC0-t mean",25.6 ng·h/mL
same,Cmax,"[2]; male, male rats, Day 28, highest dose (berberine 72.08, epiberberine 7.42, coptisine 7.42, palmatine 18.26, jatrorrhizine 2.80, columbamine 5.93 mg/kg), read-out: Cmax mean",7.97 ng/mL
same,half-life,[2]; [10],269 min
same,Tmax,[2]; [11],0.83 h
same,AUC(0-t),"[2]; male, male rats, Day 28, lowest dose (berberine 8.01, epiberberine 0.82, coptisine 1.38, palmatine 2.03, jatrorrhizine 0.31, columbamine 0.66 mg/kg), read-out: AUC0-t mean",8.62 ng·h/mL
same,Cmax,"[2]; male, male rats, Day 28, lowest dose (berberine 8.01, epiberberine 0.82, coptisine 1.38, palmatine 2.03, jatrorrhizine 0.31, columbamine 0.66 mg/kg), read-out: Cmax mean",16.4 ng/mL
same,half-life,[2]; [11],666 min
same,Tmax,[2]; [12],12 h
same,AUC(0-t),"[2]; male, male rats, Day 28, middle dose (berberine 24.03, epiberberine 2.47, coptisine 2.47, palmatine 6.09, jatrorrhizine 0.93, columbamine 1.98 mg/kg), read-out: AUC0-t mean",33.3 ng·h/mL
same,Cmax,"[2]; male, male rats, Day 28, middle dose (berberine 24.03, epiberberine 2.47, coptisine 2.47, palmatine 6.09, jatrorrhizine 0.93, columbamine 1.98 mg/kg), read-out: Cmax mean",7.78 ng/mL
same,half-life,[2]; [12],163 min
same,Systemic exposure after 28 days of administration vs single administration,"[2]; rats, oral TAZF",much lower
